The values that follow come from publication PMC6522510 (Nature Communications, 2019).

Structures are written as SMILES.

Test systems include ML-2; CMS; CHRF288-11; MV4-11; M07e; U937; CMK; MOLM-13.
Holding throughout (design): species or system AML cell lines (8); Primary HTS, single concentration about 10 uM, Cell Titer Glo viability; log10 luminescence, per cent inhibition relative to cycloheximide control
Holding throughout (conditions): 72 h, relative to cycloheximide control, log10 luminescence; inhibitor
Background: In ATP-based viability assays light output follows the ATP content of the culture.

Regarding `N#Cc1c(NC(=O)c2ccc(F)cc2)sc2c1CCCC2` [SJ000573282-1, R15619/128/1], in the assay on ML-2, the ML-2 %inh is 2.372%. In addition, in the assay with CMS, the CMS %inh is given as 0.2829%. For the same molecule, the CHRF288-11 %inh in the assay with CHRF288-11 came to 20.67%. Moreover, the MV4-11 %inh with MV4-11 is reported as -0.9119%. For the same molecule, the M07e %inh in the assay with M07e is on record as 6.55%. Further, the U937 %inh with U937 turned out to be 2.356%. Moreover, the CMK %inh with CMK was found to be 5.634%. In addition, the MOLM-13 %inh in the assay with MOLM-13 was 3.13%.

`Cc1c2ccc(N(C)c3ccnc(Nc4cccc(S(N)(=O)=O)c4)n3)cc2nn1C` [SJ000573283-1, U17574/40/1]: the ML-2 %inh in the assay with ML-2 is recorded as 3.984%. Besides, the CMS %inh in the assay on CMS worked out at 2.522%. The CHRF288-11 %inh with CHRF288-11 amounted to 6.19%. The MV4-11 %inh with MV4-11 stood at 13.33%. The M07e %inh with M07e amounted to 4.447%. In the assay with U937, the U937 %inh stood at 17.32%. Moreover, the CMK %inh in the assay on CMK is on record as 33.97%. In addition, the MOLM-13 %inh in the assay with MOLM-13 is reported as 26.58%.

Take `COc1cc2c(cc1Nc1nc(Nc3cccc(F)c3C(N)=O)c3cc[nH]c3n1)N(C(=O)CN1CCN(C(C)C)CC1)CC2` [SJ000573284-1, U23773/22/1]: the ML-2 %inh in the assay on ML-2 is on record as 60.74%. In addition, the CMS %inh in the assay on CMS was determined as 4.776%. In addition, the CHRF288-11 %inh with CHRF288-11 worked out at 156%. Moreover, the MV4-11 %inh in the assay with MV4-11 was -1.565%. Also, in the assay on M07e, the M07e %inh is -2.07%. The U937 %inh in the assay with U937 is recorded as -4.151%. Further, in the assay with CMK, the CMK %inh was 28.42%. The MOLM-13 %inh with MOLM-13 came to 110%.

For `COC(=O)Nc1nc2ccc(Oc3ccc(NC(=O)Nc4cc(C(F)(F)F)ccc4F)cc3)cc2s1` [SJ000573286-1, T277/77/2], the ML-2 %inh with ML-2 is recorded as 3.773%. Further, the CMS %inh in the assay on CMS was -2.124%. Also, the CHRF288-11 %inh with CHRF288-11 is given as 2.804%. In the assay on MV4-11, the MV4-11 %inh is reported as 23.01%. In addition, in the assay on M07e, the M07e %inh is 9.62%. Moreover, the U937 %inh in the assay with U937 is reported as -3.236%. The CMK %inh in the assay on CMK came out at 4.078%. Besides, the MOLM-13 %inh in the assay on MOLM-13 was found to be 27.47%.

In the case of `Nc1nc(-c2cccc(Cl)c2)c(-c2ccc3ncccc3n2)s1` [SJ000573287-1, FTTA/246/163/2], in the assay with ML-2, the ML-2 %inh amounted to 2.244%. The CMS %inh with CMS came to 0.5039%. Further, the CHRF288-11 %inh in the assay with CHRF288-11 turned out to be 1.906%. Further, the MV4-11 %inh in the assay on MV4-11 was -3.034%. Further, the M07e %inh in the assay on M07e was 1.682%. The U937 %inh in the assay with U937 is on record as -2.159%. The CMK %inh with CMK is -4.613%. In the assay on MOLM-13, the MOLM-13 %inh was -0.7857%.

On to `Cc1nnc(-c2cccc(-c3ccc(C(=O)NCC4CC4)cc3)c2)o1` [SJ000573288-1, N5058-19-3], for which the ML-2 %inh with ML-2 is listed as 2.007%. In the assay on CMS, the CMS %inh is on record as -1.146%. Besides, the CHRF288-11 %inh in the assay on CHRF288-11 was -4.251%. For the same molecule, in the assay with MV4-11, the MV4-11 %inh was -0.4477%. Further, the M07e %inh in the assay with M07e worked out at 0.8786%. For the same molecule, in the assay on U937, the U937 %inh is listed as -1.478%. Besides, the CMK %inh in the assay with CMK is 3.578%. Further, the MOLM-13 %inh with MOLM-13 is 2.072%.

On to `CN(C)CCOc1ccc(-c2nc(-c3ccncc3)c(-c3ccc4c(c3)CC/C4=N\O)[nH]2)cc1` [SJ000573289-1, MM206071-092A1 | SB590885], for which the ML-2 %inh in the assay on ML-2 is given as -1.225%. Further, the CMS %inh with CMS turned out to be 1.753%. The CHRF288-11 %inh in the assay on CHRF288-11 is 9.844%. Moreover, the MV4-11 %inh in the assay on MV4-11 is 2.418%. Moreover, the M07e %inh with M07e was found to be 3.647%. Further, the U937 %inh with U937 worked out at 1.485%. Also, in the assay with CMK, the CMK %inh is recorded as -1.288%. Also, the MOLM-13 %inh in the assay on MOLM-13 worked out at 11.69%.

Turning to `COc1ccc(COc2ccc(Cc3cnc(N)nc3N)cc2OC)cc1` [SJ000573290-1, U22490/41/5 | GW2580 | CFMS RECEPTOR TYROSINE KINASE INHIBITOR | CSF-1 RECEPTOR INHIBITOR | GW-2580 | GW2580], the ML-2 %inh in the assay on ML-2 turned out to be 2.578%. For the same molecule, the CMS %inh in the assay on CMS is reported as -2.221%. Besides, the CHRF288-11 %inh in the assay with CHRF288-11 is recorded as 2.429%. Further, in the assay on MV4-11, the MV4-11 %inh is reported as 1.548%. The M07e %inh in the assay on M07e came to 0.1702%. In addition, in the assay on U937, the U937 %inh came to 5.457%. Further, the CMK %inh in the assay on CMK is given as 9.776%. Besides, the MOLM-13 %inh in the assay with MOLM-13 is on record as 5.043%.

Regarding `CCS(=O)(=O)c1ccc(OC)c(Nc2ncc(-c3ccccc3Cl)o2)c1` [SJ000573291-1, U15747/47/1], in the assay on ML-2, the ML-2 %inh is -1.239%. For the same molecule, the CMS %inh in the assay with CMS is -1.399%. The CHRF288-11 %inh in the assay with CHRF288-11 is -4.64%. Also, the MV4-11 %inh in the assay with MV4-11 was 15.16%. Further, in the assay with M07e, the M07e %inh is listed as -1.838%. Also, the U937 %inh in the assay on U937 amounted to 1.267%. Further, the CMK %inh with CMK is recorded as -1.56%. In the assay on MOLM-13, the MOLM-13 %inh is reported as -0.8597%.

As for `COc1cc2ncn(-c3cc(OCc4ccccc4C(F)(F)F)c(C(C)=O)s3)c2cc1OC` [SJ000573292-1, U22436/134/1], the ML-2 %inh in the assay with ML-2 is listed as -2.426%. Further, the CMS %inh with CMS came out at 0.7881%. The CHRF288-11 %inh in the assay with CHRF288-11 is -3.203%. For the same molecule, the MV4-11 %inh with MV4-11 is reported as -4.181%. Further, the M07e %inh in the assay on M07e is -3.084%. Also, in the assay with U937, the U937 %inh is -1.322%. Also, the CMK %inh in the assay on CMK was -1.073%. The MOLM-13 %inh in the assay on MOLM-13 is given as -1.507%.

In the case of `Cc1cccc(-c2n[nH]cc2-c2ccc3ncccc3n2)n1` [SJ000573293-1, FFJG/252/112/1 | REPSOX], the ML-2 %inh with ML-2 came out at 2.229%. For the same molecule, the CMS %inh with CMS was 2.179%. Further, the CHRF288-11 %inh in the assay on CHRF288-11 amounted to 4.75%. The MV4-11 %inh in the assay with MV4-11 is on record as 1.439%. In the assay with M07e, the M07e %inh is -1.053%. The U937 %inh with U937 amounted to 6.099%. The CMK %inh with CMK is 1.842%. In addition, the MOLM-13 %inh with MOLM-13 was -2.402%.

In the case of `Nc1nc(-c2ccc3c(c2)C(=Cc2cc(Br)c(O)c(Br)c2)C(=O)N3)cs1` [SJ000573294-1, U11298/118/1], in the assay on ML-2, the ML-2 %inh is recorded as 0.7137%. The CMS %inh with CMS is listed as 1.564%. For the same molecule, in the assay with CHRF288-11, the CHRF288-11 %inh is recorded as 13.11%. In the assay on MV4-11, the MV4-11 %inh is -2.964%. Moreover, the M07e %inh in the assay with M07e amounted to 2.045%. The U937 %inh in the assay on U937 is -1.497%. In the assay on CMK, the CMK %inh is reported as -5.127%. Further, the MOLM-13 %inh in the assay with MOLM-13 was -2.176%.

Consider `COc1cc2ncn(-c3cc(OCc4ccccc4S(C)(=O)=O)c(C#N)s3)c2cc1OC` [SJ000573295-1, U24235/171/40 | IKK-3 INHIBITOR IX | CAY10576], for which, in the assay with ML-2, the ML-2 %inh turned out to be 2.593%. Also, the CMS %inh in the assay on CMS is -0.09194%. Besides, the CHRF288-11 %inh in the assay with CHRF288-11 was 3.431%. The MV4-11 %inh in the assay with MV4-11 is 0.8968%. The M07e %inh in the assay with M07e turned out to be 3.197%. Moreover, the U937 %inh with U937 is 1.496%. Further, in the assay with CMK, the CMK %inh is given as -4.233%. Also, in the assay with MOLM-13, the MOLM-13 %inh was -1.258%.

As to `COc1ccc(-c2oc3ncnc(N)c3c2-c2ccc(NC(=O)Nc3cc(C(F)(F)F)ccc3F)cc2)cc1` [SJ000573296-1, T299/60/1], the ML-2 %inh in the assay on ML-2 stood at 0.8185%. Also, the CMS %inh with CMS was determined as 0.08626%. In addition, the CHRF288-11 %inh with CHRF288-11 is listed as -2.7%. In the assay with MV4-11, the MV4-11 %inh stood at 5.923%. In addition, the M07e %inh in the assay on M07e is recorded as -1.472%. Moreover, the U937 %inh with U937 was -2.62%. In the assay with CMK, the CMK %inh is 1.218%. In addition, the MOLM-13 %inh in the assay on MOLM-13 worked out at 23.97%.

For the molecule `CCCN1CCC(Oc2cc(Nc3nc(Nc4cccc(F)c4C(N)=O)c4cc[nH]c4n3)c(OC)cc2Cl)CC1` [SJ000573297-1, U23772/200/1], in the assay on ML-2, the ML-2 %inh was 2.245%. Besides, the CMS %inh in the assay with CMS is -0.1818%. Further, in the assay on CHRF288-11, the CHRF288-11 %inh stood at 4.97%. Moreover, the MV4-11 %inh in the assay with MV4-11 is -2.06%. The M07e %inh with M07e is listed as 3.715%. Also, the U937 %inh in the assay on U937 came out at 0.7849%. Further, the CMK %inh with CMK was 2.381%. Further, the MOLM-13 %inh in the assay with MOLM-13 amounted to 2.944%.

Turning to `COc1cc(N2CCN(C(C)C)CC2)ccc1Nc1nc(Nc2ccc(F)cc2C(N)=O)c2cc[nH]c2n1` [SJ000573298-1, U22490/47/4], the ML-2 %inh in the assay on ML-2 is 34.55%. The CMS %inh in the assay with CMS is recorded as 47.53%. The CHRF288-11 %inh in the assay with CHRF288-11 is 127%. For the same molecule, in the assay with MV4-11, the MV4-11 %inh was 68.67%. For the same molecule, the M07e %inh with M07e came out at 44.9%. Besides, the U937 %inh in the assay on U937 worked out at 43.61%. The CMK %inh in the assay on CMK worked out at 61.83%. Besides, the MOLM-13 %inh in the assay on MOLM-13 was determined as 113.4%.

Turning to `COC(=O)Nc1nc2cc(Oc3cccc(NC(=O)Nc4cc(C(F)(F)F)ccc4F)c3)ccc2[nH]1` [SJ000573299-1, T261/2/3], in the assay with ML-2, the ML-2 %inh is listed as -3.985%. The CMS %inh in the assay with CMS is -1.053%. Moreover, the CHRF288-11 %inh in the assay with CHRF288-11 is on record as -6.517%. For the same molecule, the MV4-11 %inh in the assay with MV4-11 is 1.052%. In addition, in the assay on M07e, the M07e %inh is recorded as -5.089%. The U937 %inh with U937 is -3.556%. Besides, the CMK %inh in the assay on CMK was 4.931%. Moreover, the MOLM-13 %inh in the assay on MOLM-13 was found to be 2.873%.
